Results from patent US20230270753A1, “COMBINATIONS OF GABAA ALPHA 5 AGONISTS AND SV2A INHIBITORS AND METHODS OF USING IN THE TREATMENT OF COGNITIVE IMPAIRMENT” (AGENEBIO, INC., priority 2020, published 2023).

Tested on: aged-impaired (AI) Long-Evans rats
Experiment: Morris Water Maze retention trial, levetiracetam (Example 1)
Format: in vivo, rat
Settings: levetiracetam 5 mg/kg/day i.p.; retention trial 24 hours after last training trial
Procedure: Six aged-impaired (AI) Long-Evans rats (as characterized above) were tested for their memory of new spatial information in the Morris water maze (MWM), under different drug/control treatment conditions (vehicle control and two different dosage levels of levetiracetam). A retention trial was performed after the training trials, as described below. The MWM apparatus consists of a large, circular pool (diameter 1.53 m; height, 0.58 m) filled with water (27° C.) that is made opaque through the addition of non-toxic pigment or some other substance. In the typical “hidden platform” version of the test, rats are trained to find a camouflaged white escape platform (height, 34.5 cm) that is positioned in the center of one quadrant of the maze about 1.0 cm below the water surface. This platform can be retracted to the bottom of the tank or raised to its normal position from outside the maze during behavioral testing. The location of the platform remains constant from trial to trial. […] The behavior of a rat in the pool is recorded by a camera that is suspended 2.5 m above the center of the pool. […] In the retention trial, the time the AI rats spent swimming in the target quadrant is measured and further plotted as a percentage of total swimming time. […]

## CC[C@@H](C(N)=O)N1CCCC1=O [levetiracetam, (2S)-2-(2-oxopyrrolidin-1-yl)butanamide]
  time spent in the target quadrant vs vehicle: did not significantly improve
